For seven molecules, Ki results are on record in ChEMBL document CHEMBL4477238, “Ligand binding cooperativity: Bioisosteric replacement of CO with SO2 among thrombin inhibitors” (Bioorg Med Chem Lett, 2016).

What is called Ki is a dissociation constant, usually derived from enzyme kinetics or from competition with a known ligand.

In this assay the target is Prothrombin (Homo sapiens, UniProt P00734). Description: Inhibition of human alpha-thrombin using chromogenic substrate Pefachrome tPa measured every second for 20 mins by spectrophotometry.
`CC(C)CC(=O)N1CCC[C@H]1C(=O)NCc1ccc(C(=N)N)cc1` displayed a Ki of 4 µM.

`N=C(N)c1ccc(CNC(=O)[C@@H]2CCCN2C(=O)Cc2ccccc2)cc1` registered a Ki of 0.2 µM.

Consider `CCS(=O)(=O)N1CCC[C@H]1C(=O)NCc1ccc(C(=N)N)cc1`, for which the Ki was 117 µM.

Molecule `CC(C)CS(=O)(=O)N1CCC[C@H]1C(=O)NCc1ccc(C(=N)N)cc1` gave a Ki of 3.4 µM.

On to `N=C(N)c1ccc(CNC(=O)[C@@H]2CCCN2S(=O)(=O)Cc2ccccc2)cc1`, for which the Ki was 2.5 µM.

Molecule `CC(C)CCS(=O)(=O)N1CCC[C@H]1C(=O)NCc1ccc(C(=N)N)cc1` yielded a Ki of 2.7 µM.

The molecule `CCCS(=O)(=O)N1CCC[C@H]1C(=O)NCc1ccc(C(=N)N)cc1` registered a Ki of 12 µM.
